Results on 26 molecules are retold here after patent US4663323A, “Tetrazole derivatives, anti-ulcer composition containing the same and method for treating ulcers” (Otsuka Pharmaceutical Co., Ltd., priority 1984, dated 1987).

The subject of one test is Stress Ulcer. The test can be described thus: Stress Ulcer. The note with it: oral, 1×10^-3 mole in 0.5% CMC, before restraint and water dipping at 23° C. for 7 hours. It counts as in vivo, male Wistar rats. As for the experimental part: After male Wistar rats weighing about 170 g was fasted for 24 hours, the rats were restrained in a stress cage and dipped in water bath at 23° C. till chest of the animals. After 7 hours, the rats were killed and the stomach was isolated. Into the isolated stomach 10% formalin (8 ml) was poured and settled. The stomach was cut open at the greater curvature, and the length of each ulcer on the membrane was measured. Sum of the length of all ulcers was shown as ulcer index (UI). The test compound was orally administered to the rats before restraint in a stress cage in the form of 0.5% CMC suspension in a concentration of 1×10^-3 mole. As a control, only the solvent (CMC solution) was administered likewise.
The inhibitory ratio (%) of stress ulcer of the test compounds was calculated by the following equation: [formula]
(§1) In the table, the inhibitory ratio (%) was evaluated as follows: […]

The next test has as its system gastric juice secretion. The test can be described thus: Shay rat pylorus ligation method (gastric juice secretion-inhibiting activity). The note with it: sc, 4 h, 100 mg/kg s.c., 30 min before pylorus ligation, measured 4 hours after ligation. It counts as in vivo, male Wistar rats. The protocol:
The pharmacological activities of the compouns (I) were tested by a Shay rat pylorus ligation method (cf. H. Shay et al: Gastroenterol., Vol. 5, page 43, 1945) which is the most popular method for testing of gastric juice secretion-inhibiting activity. The test was carried out by using male Wistar rats, weighing about 170 g and fasting for 24 hours.
Test compounds were administered 30 minutes before the pylorus ligation in a dose of 100 mg/kg in subcutaneous route, and the volume, total acidity and/or pepsin activity of the gastric juice were measured 4 hours after the ligation. As a control, a saline solution was administered instead of the test compound. The inhibitory ratio (%) of the test compounds were calculated when the inhibitory activities of the control were counted as zero (0).
as §1

Where [1] appears, read: saline control = 0, read-out: Inhibitory ratio, Volume of gastric juice.
Where [2] appears, read: saline control = 0, read-out: Inhibitory ratio, Pepsin activity.
The mark [3] stands for this setting: saline control = 0, read-out: Inhibitory ratio, Total acidity.

Where two headings read alike, the source gives them in different places.

For the molecule `CCN(CC)C(=O)CCSCc1nnnn1CC` [Compound 14, N,N-Diethyl-3-(1-ethyl-1,2,3,4-tetrazol-5-yl)methylthio-propionamide], the “Inhibitory ratio of stress ulcer” value with Stress Ulcer was “++ (more than 60%)”. Besides, in the test with gastric juice secretion (setting [1]), the inhibition in vivo at 100 mg/kg lay within 10 to 50%.
In the case of `CCCCn1nnnc1CSCCC(=O)NCC` [Compound 15, N-Ethyl-3-(1-butyl-1,2,3,4-tetrazol-5-yl)-methylthio-propionamide], the “Inhibitory ratio of stress ulcer” value in the test with Stress Ulcer is “++ (more than 60%)”.
Same read-out and setting: the entry for `CCN(CC)C(=O)CCCSCc1nnnn1CC` [Compound 18, N,N-Diethyl-4-(1-ethyl-1,2,3,4-tetrazol-5-yl)methylthio-butyramide] is “+ (30 to less than 60%)”.
For `CCN(C(=O)CCCSc1nnnn1C)C1CCCCCC1` [Compound 20, N-Ethyl-N-cycloheptyl-4-(1-methyl-1,2,3,4-tetrazol-5-yl)thio-butyramide], the inhibition in vivo at 100 mg/kg was less than 10% in the test on gastric juice secretion (setting [2]), 10 to 50% with gastric juice secretion (setting [3]) and more than 50% in the test on gastric juice secretion (setting [1]).
For `CC(C)N(C(=O)CCCSc1nnnn1C)C(C)C` [Compound 21, N,N-Diisopropyl-4-(1-methyl-1,2,3,4-tetrazol-5-yl)thio-butyramide], in that order: less than 10%, 10 to 50% and more than 50%.
The like results for `Cn1nnnc1SCCCC(=O)N(Cc1ccccc1)Cc1ccccc1` [Compound 22, N,N-Dibenzyl-4-(1-methyl-1,2,3,4-tetrazol-5-yl)thio-butyramide] were, in that order, less than 10%, 10 to 50% and 10 to 50%.
Regarding `CCN(C(=O)CCCCc1nnnn1C1CCCCC1)C1CCCCC1` [Compound 23, N-Ethyl-N-cyclohexyl-5-(1-cyclohexyl-1,2,3,4-tetrazol-5-yl)valeramide], the “Inhibitory ratio of stress ulcer” value in the test with Stress Ulcer was “+ (30 to less than 60%)”. Moreover, the inhibition in vivo at 100 mg/kg in the test with gastric juice secretion (setting [2]) was less than 10%; in the test on gastric juice secretion (setting [3]), 10 to 50%; in the test with gastric juice secretion (setting [1]), 10 to 50%.
In the case of `CC(C)N(C(=O)CCCSc1nnnn1C)C1CCCCC1` [Compound 24, N-Isopropyl-N-cyclohexyl-4-(1-methyl-1,2,3,4-tetrazol-5-yl)thio-butyramide], the inhibition in vivo at 100 mg/kg in the test with gastric juice secretion (setting [2]) was less than 10%; with gastric juice secretion (setting [3]), 10 to 50%; with gastric juice secretion (setting [1]), more than 50%.
Regarding `Cn1nnnc1SCCCC(=O)N1CCCCC1` [Compound 25, 1-Methyl-5-(3-piperidylcarbonylpropyl)thio-1,2,3,4-tetrazole], the inhibition in vivo at 100 mg/kg in the test with gastric juice secretion (setting [2]), in the test on gastric juice secretion (setting [3]) and with gastric juice secretion (setting [1]) was 10 to 50% throughout.
For `Cn1nnnc1SCCCC(=O)Nc1ccccn1` [Compound 27, N-(2-Pyridyl)-4-(1-methyl-1,2,3,4-tetrazol-5-yl)thio-butyramide], the inhibition in vivo at 100 mg/kg in the test on gastric juice secretion (setting [2]), with gastric juice secretion (setting [3]) and in the test on gastric juice secretion (setting [1]) was 10 to 50% each time.
With `CCN(C(=O)CCCSc1nnnn1C)C1CCCC1` [Compound 29, N-Ethyl-N-cyclopentyl-4-(1-methyl-1,2,3,4-tetrazol-5-yl)thio-butyramide], the inhibition in vivo at 100 mg/kg with gastric juice secretion (setting [2]) was 10 to 50%; with gastric juice secretion (setting [3]) it was more than 50%; in the test with gastric juice secretion (setting [1]), more than 50%.
Consider `CCN(CC1CCCCC1)C(=O)CCCSc1nnnn1C` [Compound 30, N-Ethyl-N-cyclohexylmethyl-4-(1-methyl-1,2,3,4-tetrazol-5-yl)thio-butyramide], for which the inhibition in vivo at 100 mg/kg with gastric juice secretion (setting [2]) was 10 to 50%; in the test with gastric juice secretion (setting [3]) it was 10 to 50%; in the test with gastric juice secretion (setting [1]), more than 50%.
Regarding `CCN(C(=O)CCCSc1nnnn1-c1ccccc1)C1CCCCC1` [Compound 31, N-Ethyl-N-cyclohexyl-4-(1-phenyl-1,2,3,4-tetrazol-5-yl)thio-butyramide], the values for the inhibition in vivo at 100 mg/kg in the test with gastric juice secretion (setting [2]), in the test on gastric juice secretion (setting [3]) and with gastric juice secretion (setting [1]) were 10 to 50%, 10 to 50% and more than 50%, respectively.
With `CC(=O)N1CCN(C(=O)CCCSc2nnnn2C)CC1` [Compound 32, 1-Methyl-5-[3-(4-acetyl-1-piperazinylcarbonyl)propyl]thio-1,2,3,4-tetrazol], the inhibition in vivo at 100 mg/kg in the test with gastric juice secretion (setting [2]), in the test on gastric juice secretion (setting [3]) and with gastric juice secretion (setting [1]) was 10 to 50% each time.
Take `Cn1nnnc1SCCCC(=O)N1CCOCC1` [Compound 33, 1-Methyl-5-(3-morpholinocarbonylpropyl)thio-1,2,3,4-tetrazole]: the inhibition in vivo at 100 mg/kg in the test on gastric juice secretion (setting [2]), with gastric juice secretion (setting [3]) and in the test on gastric juice secretion (setting [1]) was 10 to 50% in each case.
`CCN(CC)C(=O)CCCCc1nnnn1C` [Compound 34, N,N-Diethyl-5-(1-methyl-1,2,3,4-tetrazol-5-yl)valeramide]: the “Inhibitory ratio of stress ulcer” value in the test with Stress Ulcer is “+ (30 to less than 60%)”. Also, the inhibition in vivo at 100 mg/kg in the test with gastric juice secretion (setting [2]), in the test with gastric juice secretion (setting [3]) and in the test with gastric juice secretion (setting [1]) was 10 to 50% each time.
For `CCN(C(=O)CCSCc1nnnn1CC)C1CCCCC1` [Compound 36, N-Ethyl-N-cyclohexyl-3-(1-ethyl-1,2,3,4-tetrazol-5-yl)methylthio-propionamide], the inhibition in vivo at 100 mg/kg in the test on gastric juice secretion (setting [1]) is more than 50%.
Same read-out and setting: the value for `Cn1nnnc1SCCCC(=O)O` [Compound 38, 4-(1-methyl-1,2,3,4-tetrazol-5-yl)thiobutyric acid] was 10 to 50%; that for `Cn1nnnc1SCCCC(=O)N(CCO)c1ccccc1` [Compound 40, N-(2-Hydroxyethyl)-N-phenyl-4-(1-methyl-1,2,3,4-tetrazol-5-yl)thio-butyramide] was 10 to 50%.
The same measure, in the same setting: the figure for `Cn1nnnc1SCCCC(=O)Nc1ccc(S(N)(=O)=O)cc1` [Compound 41, N-(4-Sulfamoylphenyl)-4-(1-methyl-1,2,3,4-tetrazol-5-yl)thio-butyramide] is 10 to 50%; for `Cc1c(Cl)cccc1NC(=O)CCCSc1nnnn1C` [Compound 42, N-(2-Methyl-3-chlorophenyl)-4-(1-methyl-1,2,3,4-tetrazol-5-yl)thio-butyramide] it is 10 to 50%; for `Cn1nnnc1SCCCC(=O)Nc1ccc([N+](=O)[O-])cc1` [Compound 43, N-(4-Nitrophenyl)-4-(1-methyl-1,2,3,4-tetrazol-5-yl)thio-butyramide] it is 10 to 50%.
On to `CCCCCCNC(=O)CCCCc1nnnn1-c1ccccc1` [Compound 48, N-(n-Hexyl)-5-(1-phenyl-1,2,3,4-tetrazol-5-yl)valeramide], for which the “Inhibitory ratio of stress ulcer” value with Stress Ulcer is “+ (30 to less than 60%)”.
Same read-out and setting: the value for `CC(C)N(C(=O)CCCCc1nnnn1-c1ccccc1)C1CCCCC1` [Compound 50, N-Isopropyl-N-cyclohexyl-5-(1-phenyl-1,2,3,4-tetrazol-5-yl)valeramide] was “++ (more than 60%)”.
`CCc1ccc(-n2nnnc2CSCCC(=O)O)cc1` [Compound 53, 3-[1-(4-Ethylphenyl)-1,2,3,4-tetrazol-5-yl]-methylthio-propionic acid]: in the test with gastric juice secretion (setting [1]), the inhibition in vivo at 100 mg/kg was 10 to 50%.
On the same count and under the same terms, the value for `COC(=O)CCCCc1nnnn1C1CCCCC1` [Compound 54, Methyl 5-(1-cyclohexyl-1,2,3,4-tetrazol-5-yl)valerate] was 10 to 50%.
